In US20090209525A1, “ENABLING METHODS TO IDENTIFY ALLOSTERIC MODULATORS OF RECEPTOR ACTIVITY” (priority 2006, published 2009):
Residue numbers refer to the chain shown, from its start. “And” between values parts separate entries of the source, which are not always exact repeats. Identical values can stand only once. Like-named read-outs stand apart in the source and are kept apart here.

Key:
Format in all cases: cell-based
[1] = target: T1, rat M1 wild-type receptors (Rattus norvegicus, UniProt P08482); test: R-SAT functional assay, wild-type receptor; conditions: for EC50: read-out: pEC50 (converted); for Shift: EC50 divided by EC50 for wild-type (reference)
T1 construct: expressed in transfected cells
T1 sequence (P08482 1-460): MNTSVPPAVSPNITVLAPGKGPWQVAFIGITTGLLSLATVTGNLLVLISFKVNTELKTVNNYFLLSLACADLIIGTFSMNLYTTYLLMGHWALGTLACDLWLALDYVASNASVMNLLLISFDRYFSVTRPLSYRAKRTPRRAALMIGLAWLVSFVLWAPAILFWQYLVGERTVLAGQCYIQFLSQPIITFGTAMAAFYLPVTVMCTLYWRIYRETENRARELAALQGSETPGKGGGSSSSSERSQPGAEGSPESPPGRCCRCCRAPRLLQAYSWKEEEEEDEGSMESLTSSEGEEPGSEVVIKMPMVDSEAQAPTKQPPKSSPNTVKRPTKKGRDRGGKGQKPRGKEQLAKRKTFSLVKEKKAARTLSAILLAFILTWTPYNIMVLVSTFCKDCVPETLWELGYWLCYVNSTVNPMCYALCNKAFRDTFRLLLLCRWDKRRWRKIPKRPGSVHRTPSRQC
Experimental: (§1) Cells are co-transfected for 18 h with DMEM containing 0.08 micrograms/ml of an expression vector for the expression of the mutant receptor and 0.3 micrograms/ml pSI-Bgal (Promega, Madison Wis.), and 0.5% v/v Polyfect (Qiagen, Valencia Calif.), as recommended by the manufacturer. On day three, the medium is replaced with DMEM containing 1% PSG, 0.5% calf serum, 2% cyto-sf3 (Kemp Biotechnologies, Frederick, Md.), and varying concentrations of the compounds to be tested. Cells are grown in a humidified atmosphere with 5% ambient CO2 for 5 days. The media is removed from the plates, and beta-galactosidase activity is measured by the addition of o-nitrophenyl -d-galactopyranoside in phosphate-buffered saline with 5% Nonidet P-40. […] The following equation is fitted to the data using GraphPad Prism software (San Diego, Calif.):
(§2) NIH-3T3 cells were grown in 96-well tissue culture plates to 70 to 80% confluence in Dulbecco's modified essential media (DMEM) supplemented with 100 units/ml penicillin, 100 micrograms/ml streptomycin, 0.3 mg/ml L-glutamine (1% PSG, GIBCO) and 10% calf serum (Sigma-Aldrich). Cells were transfected for 18 h with DMEM containing 0.08 micrograms/ml receptor DNA and 0.3 micrograms/ml pSI-Bgal (Promega, Madison Wis.), 0.5% v/v Polyfect (Qiagen, Valencia Calif.). Medium was replaced with DMEM containing 1% PSG, 0.5% calf serum, 2% cyto-sf3 (Kemp Biotechnologies, Frederick, Md.), and varying concentrations of ligand. […] Cells were grown in a humidified atmosphere with 5% ambient CO2 for 5 days. Medium was removed from the plates, and beta-galactosidase activity was measured by the addition of o-nitrophenyl -d-galactopyranoside in phosphate-buffered saline with 5% Nonidet P-40.
(§3) Receptor Selection and Amplification (R-SAT™) Assays: R-SAT™ functional assays were carried out as follows. NIH-3T3 cells were grown in 96-well tissue culture plates to 70 to 80% confluence in Dulbecco's modified essential media (DMEM) supplemented with 100 units/ml penicillin, 100 micrograms/ml streptomycin, 0.3 mg/ml L-glutamine (1% PSG, GIBCO) and 10% calf serum (Sigma-Aldrich). Cells were transfected for 18 h with DMEM containing 0.08 micrograms/ml receptor DNA and 0.3 micrograms/ml pSI-Bgal (Promega, Madison Wis.), 0.5% v/v Polyfect (Qiagen, Valencia Calif.). The transfected cells were frozen away. Cells were thawed and added to 96 well plates with DMEM containing 1% PSG, 0.5% calf serum, 2% cyto-sf3 (Kemp Biotechnologies, Frederick, Md.), and varying concentrations of ligand.
(§4) In an effort to further characterize monoamine modulators, we used a panel of mutant muscarininc M1 receptors to analyze the activity and potency of orthosteric modulators and various allosteric modulators at those receptors.

rat M1 W101A receptor = target: T2, rat M1 W101A receptor (Rattus norvegicus, UniProt P08482, W101A); test: R-SAT functional assay, W101A mutant; conditions: for increase in potency relative to wild-type: R-SAT; for Shift: EC50 W101A divided by EC50 wild-type; for Eff (%): maximum response, normalized; for EC50: read-out: pEC50 (converted)
T2 construct: expressed in transfected cells
T2 sequence (P08482 1-460 W101A): T1 sequence (P08482 1-460) with W101A
Experimental: as §1, §2, §3, §4

rat M1 S109A receptor = target: T3, rat M1 S109A receptor (Rattus norvegicus, UniProt P08482, S109A); test: R-SAT functional assay, S109A mutant; conditions: Table 3; for Shift: EC50 S109A divided by EC50 wild-type; for EC50 / Eff (%): S109A; for Eff (%): maximum response, normalized
T3 construct: expressed in transfected cells
T3 sequence (P08482 1-460 S109A): T1 sequence (P08482 1-460) with S109A
Experimental: as §1, §2

[2] = Table 2, maximum response relative to maximum response of carbachol
[3] = Table 3, M1 WT, maximum response, normalized
[4] = Table 4, M1 wild type, maximum response relative to xanomeline
[5] = Table 10, M1 Wild-Type, NA = non-active
[6] = Table 10, M1 Wild-Type, maximum response relative to carbachol
[7] = Table 4, M1 W101A, maximum response relative to xanomeline
[8] = Table 10, M1 W101A, maximum response relative to AC-42

SMILES	Eff (%) [1, 2] [%]	EC50 ([1]; Table 2, mean +/- S.E.M., n=5) [nM]	Shift ([1]; Table 3)	Eff (%) [1, 3] [%]	EC50 ([1]; Table 3, M1 WT) [nM]	% Eff [1, 4] [%]	EC50 [1, 5] [nM]	% Eff [1, 6] [%]	increase in potency relative to wild-type (rat M1 W101A receptor; W101A)	Shift (rat M1 W101A receptor; Table 3)	Eff (%) (rat M1 W101A receptor; Table 3, W101A)	EC50 (rat M1 W101A receptor; Table 3, W101A) [nM]	% Eff (rat M1 W101A receptor; [7]) [%]	EC50 (rat M1 W101A receptor; Table 4, M1 W101A) [nM]	% Eff (rat M1 W101A receptor; [8]) [%]	EC50 (rat M1 W101A receptor; Table 10, M1 W101A) [nM]	Shift (rat M1 S109A receptor)	EC50 (rat M1 S109A receptor) [nM]	Eff (%) (rat M1 S109A receptor)	EC50 ([1]; Table 4, M1 wild type) [nM]
CCCCC1CCN(CCCC(=O)c2ccccc2C)CC1 [AC-42, 4-n-butyl-1-[4-(2-methylphenyl)-4-oxo-1-butyl] piperidine hydrogen chloride]	48 ± 11	158	1	47 ± 5	158	24	200	56	50 fold	0.02	95 ± 10	3.16	97	7.94	111	7.94	1	158	59 ± 5	
CCCCC1CCN(CCCN2C(=O)COc3cc(F)ccc32)CC1 [AC-260584, 4-[3-(4-Butyl-piperidin-1-yl)-propyl]-7-fluoro-4H-benzo [1,4]oxazin-3-one]	89 ± 11	15.8	1	89 ± 6	15.8	59	25.1	109	33 fold and 30 fold	0.03	100 ± 8	0.398	98	0.2	140	3.16	1	15.8	104 ± 12	25.1
Clc1ccc2c(c1)N=C(N1CCNCC1)c1ccccc1N2 [NDMC, 8-chloro-11-(1-piperazinyl)-5H-dibenzo [b,e] [1,4] diazepine]	79 ± 14	50.1	1	78 ± 4	50.1	43	100	93		5	88 ± 12	200	72	39.8	93	100	2	100	68 ± 9	31.6
